Experimental data published in US20120141467A1, “Ascorbic acid to treat chronic obstructive lung diseases and non-Hodgkin's lymphoma” (priority 2010, published 2012).

Test system: upper respiratory mucosa
Test: Safety tests of topical ascorbate (spray, lozenge) on upper respiratory mucosa
Details: Three ml oral/nasal spray in sterile water three times daily for six months
Description: Initiation of the test sought first to assure that the designed aerosol would be safely tolerated by the IC's respiratory mucosa.

## O=C1O[C@H]([C@@H](O)CO)C(O)=C1O [ascorbate]
  Adverse effects of spray on upper respiratory mucosa: no adverse effects
